# Patent US4548820A, “Xanthine compounds” (Adir, priority 1982, dated 1985)
# Legend:
# A 1 receptors = molecular target: T1, A 1 receptors (Homo sapiens, UniProt P30542); test: Purinergic A 1 receptors; format: binding
# T1 sequence (P30542 1-326): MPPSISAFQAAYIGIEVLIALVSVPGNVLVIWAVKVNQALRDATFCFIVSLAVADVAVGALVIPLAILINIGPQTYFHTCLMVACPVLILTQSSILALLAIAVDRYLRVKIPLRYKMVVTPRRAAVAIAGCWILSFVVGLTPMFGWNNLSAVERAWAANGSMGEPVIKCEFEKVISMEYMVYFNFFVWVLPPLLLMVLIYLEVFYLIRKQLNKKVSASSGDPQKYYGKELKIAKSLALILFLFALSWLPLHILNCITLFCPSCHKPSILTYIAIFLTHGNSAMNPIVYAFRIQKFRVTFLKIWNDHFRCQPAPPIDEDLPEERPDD
# [1] = test system: effect produced in the guinea pig by a histamine aerosol; test: Test of A. K. Armitage, histamine aerosol at 4%; format: in vivo; details: oral administration of 5 mg/kg
# Method: When submitted to the test of A. K. Armitage, Brit J. Pharmacol. 17, 196, (1961), the compounds according to the invention administered by oral route at doses between 0.5 and 10 mg/kg, depending on the compounds, inhibit by 50% the effect produced in the guinea pig by a histamine aerosol at 4%. For certain of these compounds, the effect is still very strong 48 hours after oral administration.
# By way of non-restricting example, the oral administration of 5 mg/kg of the compound of example 1, inhibits for more than 48 hours the broncho-spasm caused be a histamine aerosol at 4%. In addition, a reduction of the anaphylactic cutaneous reaction is observed in the rat after a single administration of 20 mg/kg per os of this compound.
smiles,measurement,setting,value
"CC(C)Cn1c(=O)n(C)c(=O)c2[nH]c(CCN3CCN(C(c4ccccc4)c4ccccc4)CC3)nc21 [Example 1, 1-methyl-3-isobutyl-8-[2-(4-diphenylmethyl-piperazinyl)ethyl]xanthine]",IC50,A 1 receptors,> 100 µM
same,duration of inhibition of the broncho-spasm caused by a histamine aerosol at 4%,[1],more than 48 hours
